Target: T1, terminal deoxynucleotidyl transferase (TdT) (Bos taurus, UniProt P06526)
T1 construct: purchased Roche (Sigma-Aldrich Canada) 3333574001
Assay: TdT inhibition by ATP: tailing reaction of linearized pBlueScript plasmid with TdT and dATP, read by DNA size shift on agarose gel
Assay type: biochemical
Experimental: Linearized pBlueScript plasmid was used in a tailing reaction using TdT and dATP following manufacturer's instruction. Different concentrations of ATP were added in the reaction and the tailing efficiency was observed after agarose gel electrophoresis by a shift in the DNA size. It was sought to determine conditions for efficient repair of DNA nicks and gaps prior to the TdT end labeling. A proper combination of T4 DNA ligase and T4 DNA polymerase was used to seal nicks and fill the gaps respectively and termed «Nick and Gap Repair» (NGR). […] Limiting the purification steps is crucial to improve DNA recovery throughout the process. It was observed that TdT is inhibited by the high concentration of ATP recommended for DNA ligations (1 mM, FIG. 6). However, it was determined that efficient DNA nick sealing is still observed by decreasing the ATP concentration to 1 μM. […] From these simple modifications, both repair and labeling reactions can be performed without the need for DNA purification between these steps. It is worth noting that although the use of «Tap» DNA ligase would have the advantage of preventing DSB ligations, T4 DNA ligase was however strongly preferred because of its compatibility with the gap-filling step and its greater nick sealing activity (not shown). The efficiency of the repair step for the specific capture of DSBs within genomic DNA was established using HeLa-I-SceI DNA pre-digested with the nicking endonuclease Nt.BbvCI as this enzyme creates a single nick within a 7 nucleotide recognition sequence. A single Nt.BbvCI recognition sequence is present within the I-SceI insert and can be detected by DBrIC using a primer pair adjacent to the nick (FIG. 5C).

T1 sequence (P06526 139-509 limits assumed): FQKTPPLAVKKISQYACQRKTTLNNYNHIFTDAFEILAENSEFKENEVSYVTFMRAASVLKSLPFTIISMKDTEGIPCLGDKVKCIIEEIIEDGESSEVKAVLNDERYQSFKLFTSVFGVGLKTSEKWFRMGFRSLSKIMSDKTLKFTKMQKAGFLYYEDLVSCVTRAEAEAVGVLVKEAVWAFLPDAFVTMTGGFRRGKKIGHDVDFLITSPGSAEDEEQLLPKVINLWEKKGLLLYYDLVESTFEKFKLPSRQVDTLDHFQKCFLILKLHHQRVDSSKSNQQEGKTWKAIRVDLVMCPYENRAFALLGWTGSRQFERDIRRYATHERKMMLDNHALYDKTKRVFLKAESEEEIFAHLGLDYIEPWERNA

subsequent TdT reaction in presence of ATP (1 μM ATP): proceed normally | enzymatic activity of the TdT in presence of ATP (10 μM ATP (usual concentration for DNA ligase and DNA polymerase), FIG. 6): inhibit | TdT enzymatic activity (tailing efficiency) in presence of ATP (1 mM ATP (high concentration recommended for DNA ligations), FIG. 6): inhibited
Compound: Nc1ncnc2c1ncn2[C@@H]1O[C@H](COP(=O)(O)OP(=O)(O)OP(=O)(O)O)[C@@H](O)[C@H]1O [ATP, adenosine triphosphate]

From patent publication US10907199B2, “Double-strand DNA break quantification method” (SOCIETE DE COMMERCIALISATION DES PRODUITS DE LA RECHERCHE …, priority 2017, dated 2021)
